Patent US20120322824A1, “Cocaine Antagonist/Antidepressant Pharmaceutical Preparations” (priority 2011, published 2012)
Read-outs that look alike come from different tables or passages of the source.

Tests used:
mice [1] = test: locomotor activity (Opto-Varimax 4 Activity Analyzer); assay type: in vivo
Method: Referring now to FIGS. 2a-d, locomotor activity was assessed in a non-invasive manner using a Opto-Varimax 4 Activity Analyzer (Columbus Instruments, Columbus, Ohio) that measures animal activity in a cage intersected with photocells projecting infrared beams 2.5 cm apart and 2 cm above the floor. After a brief habituation period, animals were treated with either sterile water as vehicle or MI-4 and activity was measured for 20 min.

mice [2] = test: tail suspension test (TST); assay type: in vivo
Source text: Referring now to FIGS. 5a-d, the tail suspension test (TST) and forced swim test (FST) are well-established, prototypical rodent models of learned helplessness. […] These assays are based on the premise that helpless or “depressed” animals struggle less to escape the mild but inescapable stress of being suspended or being immersed in room temperature water. […] In the TST, standard laboratory tape is used to immobilize an animal by its tail to a fixed support approximately 10.5 inches above a surface. The duration of the test is six minutes during which time animal movement is videotaped and later scored for immobility time (in sec) by a blinded observer. Similarly, in the FST animals are immersed in approximately 10 cm of 25° C. water in a 20 cm×13 cm glass cylinder. Animals were tested for 5 min and behavior was videotaped and scored for immobility time (sec) by a blinded observer.

[3] = human subjects, cited from earlier work
[4] = biological target: serotonin (5-HT) transporter (Homo sapiens, UniProt P31645); test: in vitro binding affinity, serotonin transporter; conditions: in vitro studies
serotonin (5-HT) transporter, sequence (P31645 whole entry): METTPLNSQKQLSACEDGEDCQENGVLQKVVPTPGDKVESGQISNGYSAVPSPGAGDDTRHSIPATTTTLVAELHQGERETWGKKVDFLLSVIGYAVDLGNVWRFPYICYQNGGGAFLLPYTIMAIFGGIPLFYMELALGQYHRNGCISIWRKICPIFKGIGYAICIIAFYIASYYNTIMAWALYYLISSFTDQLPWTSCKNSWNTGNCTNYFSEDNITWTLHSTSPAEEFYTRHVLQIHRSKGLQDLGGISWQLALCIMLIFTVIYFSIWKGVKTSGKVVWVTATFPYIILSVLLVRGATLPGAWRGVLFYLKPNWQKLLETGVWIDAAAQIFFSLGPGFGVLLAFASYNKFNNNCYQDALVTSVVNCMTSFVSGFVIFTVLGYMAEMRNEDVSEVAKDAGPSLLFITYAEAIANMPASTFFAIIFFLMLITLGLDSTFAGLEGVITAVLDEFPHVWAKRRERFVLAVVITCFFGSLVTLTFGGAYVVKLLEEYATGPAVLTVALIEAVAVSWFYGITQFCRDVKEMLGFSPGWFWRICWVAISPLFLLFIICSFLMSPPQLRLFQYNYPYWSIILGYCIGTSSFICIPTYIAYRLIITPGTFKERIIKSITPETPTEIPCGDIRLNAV

rodents = conditions: doses less than 100 mg/kg, i.p.; cited from earlier work
mice [5] = test: open field test, time spent in center; assay type: in vivo; conditions: FIG. 3
Source text: Anxiety disorders are often co-morbid with depression and antidepressant drugs are used in the treatment of anxiety. Tests for anxiety in rodents, such as the open field test, make use of the aversion of the animals for exposed locations. Treatment with anxiolytics such as diazepam or fluoxetine increases the amount of time an animal will spend in the center of the open field. We used the Opto-Varimax 4 Activity Analyzer to assess the time animals spent in the center of the open field vs. the periphery after treatment with MI-4. Data were measured as time spent in center (TIC).

[6] = biological target: noreinephrine (NE) transporter (Homo sapiens, UniProt P23975); test: in vitro binding affinity, norepinephrine transporter; conditions: in vitro studies
noreinephrine (NE) transporter, sequence (P23975 whole entry): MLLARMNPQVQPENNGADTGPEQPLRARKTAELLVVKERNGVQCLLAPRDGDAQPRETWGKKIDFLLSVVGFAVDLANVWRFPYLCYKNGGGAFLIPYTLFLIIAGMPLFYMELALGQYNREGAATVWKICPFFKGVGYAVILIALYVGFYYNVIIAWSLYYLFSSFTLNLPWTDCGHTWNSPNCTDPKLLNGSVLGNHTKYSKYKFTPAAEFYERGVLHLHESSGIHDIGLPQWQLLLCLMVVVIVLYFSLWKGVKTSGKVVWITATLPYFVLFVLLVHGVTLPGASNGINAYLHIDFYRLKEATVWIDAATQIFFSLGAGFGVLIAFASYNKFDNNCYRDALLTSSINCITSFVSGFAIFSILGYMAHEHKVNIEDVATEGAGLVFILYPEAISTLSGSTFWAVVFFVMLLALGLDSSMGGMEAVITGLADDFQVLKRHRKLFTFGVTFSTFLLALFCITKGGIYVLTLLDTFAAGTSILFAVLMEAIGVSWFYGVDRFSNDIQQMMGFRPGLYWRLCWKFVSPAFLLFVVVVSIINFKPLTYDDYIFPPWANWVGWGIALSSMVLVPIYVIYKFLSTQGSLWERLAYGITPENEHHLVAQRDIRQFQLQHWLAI

mice [7] = test: conditioned place preference assay (CPP); assay type: in vivo
Method: The conditioned place preference assay (CPP) is one test commonly used to show the ability of an antagonist to block rewarding effects in mice. Referring now to FIGS. 1a-b, according to the CPP test mice are placed in an apparatus with two chambers that differ in both visual and tactile cues. Over the course of a one-week training period, a rewarding drug (e.g.—cocaine) is administered once daily exclusively in one chamber so as to allow animals to associate the cues of that chamber with the drug. Sterile water is administered once daily while the animals occupy the opposite chamber to control for non-drug effects. At the conclusion of the training period, animals are allowed free access to both chambers and the time spent in each chamber is measured electronically. It is well known that addictive substances increase the amount of time animals spend in the drug-paired chamber, in the absence of any intervention.
Moreover, additional testing was performed to control for effects of MI-4 on general behavioral activity, an essential consideration when interpreting results from locomotor-based behavioral paradigms such as the CPP test.

[8] = biological target: dopamine (DA) transporter (Homo sapiens, UniProt Q01959); test: in vitro binding affinity, dopamine transporter; conditions: in vitro studies
dopamine (DA) transporter, sequence (Q01959 whole entry): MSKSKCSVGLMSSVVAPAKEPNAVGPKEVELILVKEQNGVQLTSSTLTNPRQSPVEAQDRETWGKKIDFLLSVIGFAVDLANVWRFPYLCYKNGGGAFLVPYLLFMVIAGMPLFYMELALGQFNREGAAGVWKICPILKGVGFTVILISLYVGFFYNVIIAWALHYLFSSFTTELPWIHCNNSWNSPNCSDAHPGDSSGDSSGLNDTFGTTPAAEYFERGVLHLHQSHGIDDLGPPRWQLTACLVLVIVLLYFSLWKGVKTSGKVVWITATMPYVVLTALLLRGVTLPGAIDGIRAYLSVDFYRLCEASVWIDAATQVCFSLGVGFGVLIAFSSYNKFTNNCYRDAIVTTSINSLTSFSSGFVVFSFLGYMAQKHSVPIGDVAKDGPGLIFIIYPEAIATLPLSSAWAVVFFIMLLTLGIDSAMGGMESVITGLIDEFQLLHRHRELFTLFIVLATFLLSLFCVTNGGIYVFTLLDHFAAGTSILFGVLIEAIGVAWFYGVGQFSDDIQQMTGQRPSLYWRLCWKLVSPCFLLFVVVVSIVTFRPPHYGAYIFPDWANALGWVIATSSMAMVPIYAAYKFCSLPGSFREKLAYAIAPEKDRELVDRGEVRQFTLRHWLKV

[9] = intravenous administration for up to 72 hours

Q: With `Oc1ccc(C2=CCN(C[C@H](O)COCc3ccccc3Cl)CC2)cc1` [MI-17, reference compound] as the molecule, how does the distance traveled (mice [1]; beginning at 3 mg/kg but mostly at 10 mg/kg, FIG. 4a) read?
A: dramatically decreased

Q: And the resting time (mice [1]; beginning at 3 mg/kg but mostly at 10 mg/kg, FIG. 4b)?
A: dramatically increasing

Q: What about the stereotopy time (mice [1]; beginning at 3 mg/kg but mostly at 10 mg/kg, FIG. 4c) of the same molecule?
A: dramatically decreased

Q: What about the ambulatory time (mice [1]; beginning at 3 mg/kg but mostly at 10 mg/kg, FIG. 4d) of the same molecule?
A: dramatically decreased

Q: What about the “immobility times in the TST” value (mice [2]; 2% DMSO vehicle, FIG. 5c) of the same molecule?
A: dose-dependently increased

Q: And the “immobility times in the TST” value (mice [2]; 55% DMSO vehicle in the oxalate form, FIG. 5d)?
A: dose-dependently increased

Q: For `C[C@@H]([C@@H](O)c1ccc(O)cc1)N1CCC(O)(c2ccccc2)CC1` [traxoprodil], which oral bioavailability ([3]; extensive metabolizers (EM)) is on record?
A: 23-62%

Q: And the adverse effects [3, 9]?
A: no observable adverse effects

Q: And the “sustained levels in the cerebral spinal fluid” value [3, 9]?
A: > 200 ng/mL

Q: What about the “sustained levels in the plasma” value [3, 9] of the same molecule?
A: > 200 ng/mL

Q: And the oral bioavailability ([3]; poor metabolizers (PM))?
A: approx. 80%

Q: For `C[C@@H](CN1CCC(Cc2ccccc2)CC1)[C@@H](O)c1ccc(O)cc1` (relative stereo) [MI-4, ([R-(R*,S*)]-α-(4-Hydroxyphenyl)-β-methyl-4-(phenylmethyl)-1-piperidinepropanol], which “binding affinity for the serotonin (5-HT) transporter” value [4] is on record?
A: physiologically-relevant binding affinity

Q: What about the “adverse effects (tolerability)” value (rodents) of the same molecule?
A: no observable adverse effects

Q: And the “time in center in the open field” value (mice [5]; 10 mg/kg)?
A: decreased time in center

Q: And the “time spent in center (TIC) in the open field” value (mice [5])?
A: did not significantly increase

Q: And the “binding affinity for the noreinephrine (NE) transporter” value [6]?
A: physiologically-relevant binding affinity

Q: What about the distance traveled (mice [1]; MI-4 vs sterile water vehicle, 20 min, FIG. 2a) of the same molecule?
A: only minor effects

Q: What about the ambulatory time (mice [1]; MI-4 vs sterile water vehicle, 20 min, FIG. 2b) of the same molecule?
A: only minor effects

Q: What about the “stereotopy time (grooming behavior)” value (mice [1]; MI-4 vs sterile water vehicle, 20 min, FIG. 2c) of the same molecule?
A: did not significantly alter

Q: What about the resting time (mice [1]; MI-4 vs sterile water vehicle, 20 min, FIG. 2d) of the same molecule?
A: only minor effects

Q: And the “effect of cocaine on time in drug-paired chamber when co-administered” value (mice [7]; MI-4 10/mg/kg i.p. co-administered with cocaine 10 mg/kg i.p., FIG. 1b)?
A: reduced by half

Q: And the “rewarding effects when administered alone (time spent in the MI-4-paired chamber)” value (mice [7]; administered alone at the same dose (10/mg/kg, i.p.))?
A: did not exhibit rewarding effects

Q: What about the “binding affinity for the dopamine (DA) transporter” value [8] of the same molecule?
A: physiologically-relevant binding affinity

Q: What about the “immobility time in the TST” value (mice [2]; six minute test, FIG. 5a, comparable in effect to fluovoxamine and desipramine) of the same molecule?
A: dose-dependent reduction in immobility time
